In PubChem BioAssay AID449764 (Southern Research Specialized Biocontainment Screening …, 2010):

Tested on: Mycobacterium tuberculosis H37Rv growth inhibition, no glycerol
Experiment: Confirmatory growth inhibition assay, Mycobacterium tuberculosis H37Rv, absence of glycerol (AID 449764);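 also: growth read after 7 days of incubation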
Conditions: for IC90: measured here: IC90 growth inhibition

| SMILES | IC50 [µM] | IC90 [µM] |
| --- | --- | --- |
| COc1ccc2[nH]c3c(C)c4ccncc4c(C)c3c2c1 | 1.33 | 1.68 |
| FC(F)(F)c1cc(CO[C@@H]2CCCN[C@@H]2c2ccccc2)cc(C(F)(F)F)c1 | 27.4 | 38.2 |
| CC(C)(C)OC(=O)NNC(=S)NC1CCCCC1 | – | > 100 |
| CCn1cc(Br)c(C(=O)Nc2ccc(C(=O)OC(C)C)cc2)n1 | 39.3 | 59.5 |
| O=C(CSc1nc2ccccc2c(=O)[nH]1)NCc1ccc(Cl)cc1 | 2.78 | 3.22 |
| O=C(c1ccccc1)C1CN(Cc2ccccc2)CCC1(O)c1ccccc1 (configuration not stated) | 16.3 | 21.8 |
| Oc1ccc(C[C@H]2CNCCN2CCCCC2CCCCC2)cc1 | 40 | 55.3 |
| Cc1ccc(Nc2nc(N)nc(CN3CCc4ccccc4C3)n2)cc1 | 5.61 | 18.6 |
| CCc1ccc2c(c1)/C(=C/C(=O)c1cccs1)C(=O)N2 | 2.55 | 4.12 |
| c1ccc(CN2CCC3(CCCc4ccccc43)CC2)cc1 | 12.2 | 15.8 |
| O=C(c1ccccc1)c1ccc(OCCOCCN2CCN(Cc3ccccc3)CC2)cc1 | 24 | 27.5 |
| CN1/C(=C\C(=O)COC(=O)c2ccc([N+](=O)[O-])o2)C(C)(C)c2ccccc21 | 20.9 | 30.3 |
| C=CCOc1c(Br)cc(CNc2nccs2)cc1OC | 31.4 | 48.2 |
| Cc1ncc(C23CC4CC(CC(C4)C2)C3)[nH]1 | 76.1 | 96.7 |
| O=C(Oc1c(Cl)cc(Cl)c2cccnc12)c1cccs1 | 1.28 | 1.38 |
| Nc1nc(CN2CCN(c3ccccc3F)CC2)nc(N2CCCc3ccccc32)n1 | 12 | 24.2 |
| COc1ccc(OCC(=O)Nc2c(C(=O)N(CCN(C)C)Cc3ccco3)oc3ccccc23)cc1 | 41.8 | 45.9 |
| COC(=O)C(C)Oc1ccc(-c2nccc(-c3ccccn3)n2)cc1 (configuration not stated) | 3.91 | 6.95 |
| CCn1c2ccccc2c2cc(CN3CCN(Cc4cc(OC)ccc4O)CC3)ccc21 | 17.2 | 23.4 |
| C#C[C@]1(O)CC[C@H]2[C@@H]3CCc4cc(OC5CCCC5)ccc4[C@H]3CC[C@@]21C | 36.6 | 54.7 |
| CCCCN(C)S(=O)(=O)c1ccc(C(=O)Nc2nnc(-c3ccco3)o2)cc1 | 17.8 | 32.7 |
| O=C(OCc1nc2ccccc2s1)c1ccc(Br)o1 | 33.5 | > 50 |

| SMILES | IC50 [µM] | IC90 [µM] |
| --- | --- | --- |
| Cc1ccc(-n2cc(CN(C)Cc3nccn3C)c(-c3cccc(C)c3)n2)cc1 | 13.1 | 17.4 |
| CN(C)c1ccc(CNc2nc(-c3ccccc3)nn2S(C)(=O)=O)cc1 | 14.2 | 26.5 |
| COc1ccc(-c2oc(NC(=O)CCl)c(C#N)c2-c2ccc(OC)cc2)cc1 | 43 | 61.7 |
| CSc1nsc(/C=C/Nc2ccc(O)cc2C)c1C#N | 44.5 | 49.6 |
| CCOC(=O)c1ccc(N=C2C(=S)N(c3ccc(C(=O)OCC)cc3)C(=N)N2/N=C/c2ccccc2)cc1 | 99.7 | > 100 |
| COc1cccc(N2CCN(c3ncnc4c3[nH]c3ccccc34)CC2C)c1 (configuration not stated) | 27.1 | 42.5 |
| CCCSc1nnc(Sc2nnnn2-c2ccccc2)s1 | 22.5 | 38.8 |
| Cc1ccc(-c2nc3ccsc3c(=O)o2)cc1 | 4.19 | > 100 |
| Cc1ccc(C)c(NNC(N)=S)c1 | 16 | 29.2 |
| CCCCn1c(O)c(/C=C2/C=CC=N2)c(=O)[nH]c1=O | 12.1 | 23.6 |
| CC(Oc1ccc(F)cc1)C(=O)Nc1sc2c(c1C(=O)NCc1cccnc1)CCCC2 (configuration not stated) | 43.6 | 86 |
| CCOC(=O)CSc1nnc(NC(=O)c2ccc3c(c2)OCO3)s1 | 11.4 | 20.2 |
| Cc1ccccc1Cn1cc(NC(=O)c2noc(C(C)C)c2[N+](=O)[O-])cn1 | 5.01 | 8.45 |
| Cc1cc(-c2cc(-c3ccccc3)on2)nc(NC2CCCC2)n1 | 34.5 | 56.6 |
| COc1cc2nc(N3CCN(c4cc(C)ccc4C)CC3)nc(N)c2cc1OC | 15.3 | 18.7 |
| O=C(CCl)Nc1sccc1C(=O)c1ccccc1 | 0.45 | 12.6 |
| C/C(=C1/C(=O)N(c2ccc([N+](=O)[O-])cc2)N=C1c1ccccc1)N(C)C | 28.2 | 37 |
| CC(C)Cn1c(N2CCN(C(=O)/C=C/c3ccccc3)CC2)nc2ccccc21 | 34 | 47.4 |
| S=c1nc[nH]c2nc[nH]c12 | 3.32 | 5.19 |
| O=C(NC(C(=O)N/N=C/c1cccc2ccccc12)c1n[nH]c(=O)c2ccccc12)c1ccccc1 (configuration not stated) | 58.8 | > 100 |
| CCOC(=O)c1cc(-c2ccccc2)nc2c1c(C)nn2-c1ccccn1 | 19.3 | 44.3 |
| CC1=NOC(=O)/C1=C/c1ccc(-c2ccc(Cl)cc2)o1 | 18.4 | > 100 |
